According to patent US6468560B2, “Controlled release dosage form of [R-(Z)]-α-(methoxyimino)-α-(1-azabicyclo[2.2.2]oct-3yl) acetonitrile monohydrochloride” (SmithKline Beecham p.l.c., priority 1996, dated 2002):

System: human patients
Experiment: Administration to human patients, efficacy as a cognition enhancer
Format: in vivo
Method: Compound X has active doses around 5-125 microgramme (μg) (calculated as free base). It has been found through administration to human patients that efficacy as a cognition enhancer may be obtained at daily doses below 0.01 mg/kg more particularly 0.003 mg/kg and below, for example 0.0001-0.003 mg/kg, such as 0.00035-0.003 mg/kg. 0.0007-0.003 mg/kg, 0.0001-0.0007 mg/kg or 0.00035-0.002 mg/kg.

Q: How did the active doses (calculated as free base) turn out when `CO/N=C(\C#N)[C@H]1CN2CCC1CC2.Cl` [Compound X, [R-(Z)]-α-(methoxyimino)-α-(1-azabicyclo [2.2.2]oct-3-yl)acetonitrile monohydrochloride] was run?
A: Its active doses is 5 to 125 µg.

Q: What about the “daily doses at which efficacy as a cognition enhancer may be obtained” value (human patients, daily dose) of the same compound?
A: Its value is “below 0.01 mg/kg”.
